Measurements: patent publication US12611431B2, “Approach to sustained production and delivery of nitric oxide and S-nitrosothiols” (Albert Einstein College of Medicine, priority 2020, dated 2026)

Assays:
[1] = NO release rate measured with a Sievers 280i nitric oxide analyzer; assay type: physicochemical
Experimental: NO release rates were measured using a Sievers 280i nitric oxide analyzer (GE Instruments, Boulder, CO). Samples were dispersed in 5 mL tryptic soy broth (TSB) or MH 14% w/v in TSB at room temperature. Release kinetics were analyzed using Sievers NOAnalysis software (GE Instruments) with 12 measurements per minute recorded for 280 total minutes.

[2] = tested on: Pseudomonas aeruginosa planktonic isolates (PA1 strain); assay: Colony forming unit (CFU) assay, titration of nitrite dose with MH; assay type: cell-based; conditions: PA1, 6 hours at 37° C.; MH or nitrite (10 mM) alone
Experimental: An overnight-grown culture of the PA1 strain in TSB was diluted to 10^8 cells/mL based on McFarland equivalence turbidity standard No. 0.5 (Thermo Fisher Scientific) and then adjusted to 10^5 cells/mL in TSB. Suspensions were treated with MH, nitrite, and serial dilutions of nitrite from 10 mM to 1 μM combined with MH. Untreated bacteria were used as negative controls. Bacterial suspensions were mixed using a tube rotator to ensure uniform distribution of bacteria and then incubated at 37° C. for 6 hours. Suspensions were then diluted in PBS and plated on TSA. Bacterial viability was determined by counting the number of colonies established on an agar plate after overnight incubation at 37° C.

[3] = tested on: Pseudomonas aeruginosa biofilm, PA1 strain; assay: Biofilm viability and volume by live/dead staining and CLSM, PA1 strain; assay type: cell-based; conditions: 6 hours, MH 14% w/v, nitrite 10 mM
Experimental: (§1) A culture of PA, grown overnight in TSB, was diluted to 10^8 cells/mL. The bacterial suspension was then adjusted to 10^5 cells/mL in TSB and inoculated into an 8 well LabTek II Chambered #15 Coverglass System (Thermo Fisher Scientific). The chamber system was incubated at 37° C. for 48 hours. The media was replenished after 24 hours to maintain bacterial viability.
(§2) Established biofilms were divided into four treatment groups: 1) negative control with untreated bacterial suspension, 2) MH, 3) nitrite (10 mM), and 4) MH administered with nitrite (10 mM). Bacteria were treated with the appropriate treatment solution, as above, for 6 hours under complete darkness at 37° C. followed by washing with PBS. Staining was performed using the BacLight LIVE/DEAD Bacterial Viability kit (Invitrogen, Carlsbad, CA). The LIVE/DEAD kit solution constituting Syto9 and propidium iodide was then applied to each well of the chamber slide system for 1 hour at room temperature in darkness. After incubation, each sample was rinsed with PBS and incubated in 10% buffered formalin for 20 minutes at room temperature in darkness. […]
(§3) Images of biofilms were taken using a TCS SP5 CLSM (Leica Microsystems, Wetzlar, Germany) configured to a 488-nm argon laser with a 63× objective. […] Volocity software (PerkinElmer, Waltham, MA) was used to quantify biofilm viability and biomass in each Z-stack.

[4] = tested on: Pseudomonas aeruginosa biofilm, ATCC 15692 strain; assay: Biofilm viability and volume by live/dead staining and CLSM, ATCC 15692 strain; conditions: ATCC 15692 biofilm, 6 hours; MH 14% w/v, nitrite 10 mM, SNO-MP/B-MP 10 mg/mL
Experimental: as §1, §2, §3

[5] = over 280 minutes, nitrite 5 mM, MH 14% w/v, SNO-MP and blank-MP 5 mg/mL, TSB, room temperature

## O=NO [nitrite, sodium nitrite]
[1]; 280 minutes, neutral pH, nitrite 5 mM, MH 14% w/v, SNO-MP 5 mg/mL
  NO release curve, key points in words (FIG. 1): no NO production
[1]; nitrite 5 mM in tryptic soy broth, room temperature
  NO detected: less than 0.1 ppm
[1]; [5]
  NO release, mean: 0.004±0.001 ppm
  NO release, range: 0.003-0.009 ppm
[2]
  reduction in CFU versus controls: did not have a significant effect
[3]; SNO-MP 10 mg/mL
  reduction in biofilm volume relative to control: 43.9%
[3]; SNO-MP/B-MP 10 mg/mL
  reduction in live cells (cell viability) relative to control: did not significantly reduce
[4]
  reduction in live cells (cell viability) relative to control: did not significantly reduce
